According to ChEMBL document CHEMBL3994622, “Design and synthesis of new RAF kinase-inhibiting antiproliferative quinoline derivatives. Part 2: Diarylurea derivatives” (Eur J Med Chem, 2017):

Experiments:
Type in all cases: functional
[1] = system: Hs-578T; assay: Growth inhibition of human Hs 578T cells incubated for 48 hrs by sulforhodamine B assay
[2] = system: EKVX; assay: Growth inhibition of human EKVX cells incubated for 48 hrs by sulforhodamine B assay
[3] = system: ACHN; assay: Growth inhibition of human ACHN cells incubated for 48 hrs by sulforhodamine B assay
[4] = system: Malme-3M; assay: Growth inhibition of human MALME-3M cells incubated for 48 hrs by sulforhodamine B assay
[5] = system: SW-620; assay: Growth inhibition of human SW620 cells incubated for 48 hrs by sulforhodamine B assay; details: SW-620, 48 h
[6] = system: 786-0; assay: Growth inhibition of human 786-0 cells incubated for 48 hrs by sulforhodamine B assay; details: 786-0, 48 h
[7] = system: NCI-H522; assay: Growth inhibition of human NCI-H522 cells incubated for 48 hrs by sulforhodamine B assay; details: NCI-H522, 48 h
[8] = system: RPMI-8226; assay: Growth inhibition of human RPMI8226 cells incubated for 48 hrs by sulforhodamine B assay; details: RPMI-8226, 48 h
[9] = system: DU-145; assay: Growth inhibition of human DU145 cells incubated for 48 hrs by sulforhodamine B assay; details: DU-145, 48 h
[10] = system: OVCAR-8; assay: Growth inhibition of human OVCAR8 cells incubated for 48 hrs by sulforhodamine B assay; details: OVCAR-8, 48 h
[11] = system: UACC-62; assay: Growth inhibition of human UACC62 cells incubated for 48 hrs by sulforhodamine B assay; details: UACC-62, 48 h
[12] = system: A549; assay: Growth inhibition of human A549/ATCC cells incubated for 48 hrs by sulforhodamine B assay; details: A549, 48 h
[13] = system: SNB-19; assay: Growth inhibition of human SNB19 cells incubated for 48 hrs by sulforhodamine B assay; details: SNB-19, 48 h
[14] = system: NCI-H226; assay: Growth inhibition of human NCI-H226 cells incubated for 48 hrs by sulforhodamine B assay; details: NCI-H226, 48 h
[15] = system: SK-MEL-28; assay: Growth inhibition of human SK-MEL-28 cells incubated for 48 hrs by sulforhodamine B assay; details: SK-MEL-28, 48 h
[16] = system: PC-3; assay: Growth inhibition of human PC3 cells incubated for 48 hrs by sulforhodamine B assay; details: PC-3, 48 h
[17] = system: SF-539; assay: Growth inhibition of human SF539 cells incubated for 48 hrs by sulforhodamine B assay; details: SF-539, 48 h
[18] = system: A498; assay: Growth inhibition of human A498 cells incubated for 48 hrs by sulforhodamine B assay; details: A498, 48 h
[19] = system: RXF 393; assay: Growth inhibition of human RXF393 cells incubated for 48 hrs by sulforhodamine B assay; details: RXF 393, 48 h
[20] = system: OVCAR-3; assay: Growth inhibition of human OVCAR3 cells incubated for 48 hrs by sulforhodamine B assay; details: OVCAR-3, 48 h
[21] = system: MDA-MB-468; assay: Growth inhibition of human MDA-MB-468 cells incubated for 48 hrs by sulforhodamine B assay; details: MDA-MB-468, 48 h
[22] = system: SF-268; assay: Growth inhibition of human SF268 cells incubated for 48 hrs by sulforhodamine B assay; details: SF-268, 48 h
[23] = system: SK-MEL-5; assay: Growth inhibition of human SK-MEL-5 cells incubated for 48 hrs by sulforhodamine B assay; details: SK-MEL-5, 48 h
[24] = system: OVCAR-5; assay: Growth inhibition of human OVCAR5 cells incubated for 48 hrs by sulforhodamine B assay; details: OVCAR-5, 48 h
[25] = system: SF-295; assay: Growth inhibition of human SF295 cells incubated for 48 hrs by sulforhodamine B assay; details: SF-295, 48 h
[26] = system: CCRF-CEM; assay: Growth inhibition of human CCRF-CEM cells incubated for 48 hrs by sulforhodamine B assay
[27] = system: MOLT-4; assay: Growth inhibition of human MOLT4 cells incubated for 48 hrs by sulforhodamine B assay; details: MOLT-4, 48 h
[28] = system: KM12; assay: Growth inhibition of human KM12 cells incubated for 48 hrs by sulforhodamine B assay; details: KM12, 48 h
[29] = system: COLO 205; assay: Growth inhibition of human COLO205 cells incubated for 48 hrs by sulforhodamine B assay; details: COLO 205, 48 h
[30] = system: NCI-H322M; assay: Growth inhibition of human NCI-H322M cells incubated for 48 hrs by sulforhodamine B assay
[31] = system: SK-MEL-2; assay: Growth inhibition of human SK-MEL-2 cells incubated for 48 hrs by sulforhodamine B assay; details: SK-MEL-2, 48 h
[32] = system: UO-31; assay: Growth inhibition of human UO31 cells incubated for 48 hrs by sulforhodamine B assay; details: UO-31, 48 h
[33] = system: NCI-H23; assay: Growth inhibition of human NCI-H23 cells incubated for 48 hrs by sulforhodamine B assay; details: NCI-H23, 48 h
[34] = system: NCI-H460; assay: Growth inhibition of human NCI-H460 cells incubated for 48 hrs by sulforhodamine B assay; details: NCI-H460, 48 h
[35] = system: HL-60(TB); assay: Growth inhibition of human HL-60(TB) cells incubated for 48 hrs by sulforhodamine B assay; details: HL-60, 48 h
[36] = system: M14; assay: Growth inhibition of human M14 cells incubated for 48 hrs by sulforhodamine B assay; details: M14, 48 h
[37] = system: SK-OV-3; assay: Growth inhibition of human SKOV3 cells incubated for 48 hrs by sulforhodamine B assay; details: SK-OV-3, 48 h
[38] = system: T47D; assay: Growth inhibition of human T47D cells incubated for 48 hrs by sulforhodamine B assay
[39] = system: HCT-15; assay: Growth inhibition of human HCT15 cells incubated for 48 hrs by sulforhodamine B assay; details: HCT-15, 48 h
[40] = system: SR; assay: Growth inhibition of human SR cells incubated for 48 hrs by sulforhodamine B assay
[41] = system: IGROV-1; assay: Growth inhibition of human IGROV1 cells incubated for 48 hrs by sulforhodamine B assay; details: IGROV-1, 48 h
[42] = system: CAKI-1; assay: Growth inhibition of human Caki1 cells incubated for 48 hrs by sulforhodamine B assay; details: CAKI-1, 48 h
[43] = system: BT-549; assay: Growth inhibition of human BT549 cells incubated for 48 hrs by sulforhodamine B assay; details: BT-549, 48 h
[44] = system: MDA-MB-435; assay: Growth inhibition of human MDA-MB-435 cells incubated for 48 hrs by sulforhodamine B assay; details: MDA-MB-435, 48 h
[45] = system: HT-29; assay: Growth inhibition of human HT-29 cells incubated for 48 hrs by sulforhodamine B assay; details: HT-29, 48 h
[46] = system: OVCAR-4; assay: Growth inhibition of human OVCAR4 cells incubated for 48 hrs by sulforhodamine B assay; details: OVCAR-4, 48 h
[47] = system: MDA-MB-231; assay: Growth inhibition of human MDA-MB-231 cells incubated for 48 hrs by sulforhodamine B assay; details: MDA-MB-231, 48 h
[48] = system: HOP-62; assay: Growth inhibition of human HOP62 cells incubated for 48 hrs by sulforhodamine B assay; details: HOP-62, 48 h
[49] = system: LOX IMVI; assay: Growth inhibition of human LOXIMVI cells incubated for 48 hrs by sulforhodamine B assay
[50] = system: SNB-75; assay: Growth inhibition of human SNB75 cells incubated for 48 hrs by sulforhodamine B assay; details: SNB-75, 48 h
[51] = system: TK-10; assay: Growth inhibition of human TK10 cells incubated for 48 hrs by sulforhodamine B assay; details: TK-10, 48 h
[52] = system: U-251; assay: Growth inhibition of human U251 cells incubated for 48 hrs by sulforhodamine B assay; details: U-251, 48 h
[53] = system: HCT-116; assay: Growth inhibition of human HCT116 cells incubated for 48 hrs by sulforhodamine B assay; details: HCT-116, 48 h
[54] = system: UACC-257; assay: Growth inhibition of human UACC257 cells incubated for 48 hrs by sulforhodamine B assay; details: UACC-257, 48 h
[55] = system: SN12C; assay: Growth inhibition of human SN12C cells incubated for 48 hrs by sulforhodamine B assay

CNC(=O)c1cc(Oc2ccc(NC(=O)Nc3ccc(Cl)c(C(F)(F)F)c3)cc2)ccn1 [SORAFENIB]
TGI [1]: 3.98 µM
TGI [2]: 19.9 µM
TGI [3]: 10 µM
GI50 [4]: 2 µM
TGI [4]: 39.8 µM
TGI [5]: 5.01 µM
TGI [6]: 5.01 µM
GI50 [7]: 2 µM
TGI [7]: 5.01 µM
TGI [8]: 3.16 µM
TGI [9]: 7.94 µM
GI50 [10]: 3.16 µM
TGI [10]: 12.6 µM
TGI [11]: 2.51 µM
TGI [12]: 7.94 µM
TGI [13]: 3.98 µM
GI50 [14]: 2 µM
TGI [14]: 3.16 µM
TGI [15]: 2.51 µM
GI50 [16]: 2 µM
TGI [16]: 5.01 µM
TGI [17]: 2.51 µM
TGI [18]: 3.16 µM
TGI [19]: 5.01 µM
TGI [20]: 3.98 µM
GI50 [21]: 2 µM
TGI [21]: 5.01 µM
TGI [22]: 3.98 µM
TGI [23]: 2.51 µM
TGI [24]: 6.31 µM
TGI [25]: 6.31 µM
GI50 [26]: 2 µM
TGI [26]: 5.01 µM
TGI [27]: 100 µM
TGI [28]: 2.51 µM
GI50 [29]: 2 µM
TGI [29]: 3.16 µM
TGI [30]: 5.01 µM
GI50 [31]: 2 µM
TGI [31]: 6.31 µM
TGI [32]: 6.31 µM
GI50 [33]: 2 µM
TGI [34]: 5.01 µM
TGI [35]: 100 µM
GI50 [36]: 2 µM
TGI [36]: 3.16 µM
TGI [37]: 5.01 µM
TGI [38]: 5.01 µM
TGI [39]: 3.16 µM
TGI [40]: 63.1 µM
TGI [41]: 10 µM
TGI [42]: 12.6 µM
TGI [43]: 3.98 µM
TGI [44]: 5.01 µM
GI50 [45]: 2 µM
TGI [45]: 5.01 µM
TGI [46]: 25.1 µM
TGI [47]: 3.16 µM
GI50 [48]: 2 µM
TGI [48]: 3.16 µM
TGI [49]: 2.51 µM
TGI [50]: 3.98 µM
TGI [51]: 10 µM
GI50 [52]: 2 µM
TGI [52]: 3.16 µM
TGI [53]: 2.51 µM
GI50 [54]: 2 µM
TGI [55]: 3.16 µM
